# US11246873B2, “Directed differentiation of oligodendrocyte precursor cells to a myelinating cell fate” (The Scripps Research Institute, priority 2011, dated 2022)
# Entries after “also recorded” stand apart in the source; their conditions may differ.
# How the values were obtained:
# [1] = system: muscarinic receptor; experiment: Carbachol co-treatment in compound induced OPC differentiation (MBP staining); format: cell-based, rat; details: compounds at EC90 (benztropine 2.3 uM), serial dilutions of carbachol, 6 days
# Description: Following 6 days of treatment, cells were fixed and stained for MBP. Plates were imaged using the OPERA high content screening system and MBP staining was quantified as described. […] OPCs were plated in 384-well plates at 5000 cells per well in media containing basal PDGF-αα. Cells were equilibrated with Ca^2+ sensitive Fluo-3AM® dye in HBSS for 30 min. […] Ca^2+ influx was immediately measured using the FLIPR TETRA® system.
# OPCs express mAChRs, predominantly subtypes M1, M3, and M5 (F. Ragheb et al., J Neurochem, 77, 1396 (2001)). […] Activation of M1 and M3 mAChRs is coupled to downstream signal transduction events through phospholipase C, which results in increased intracellular calcium concentrations (F. Ragheb et al., J Neurochem, 77, 1396 (2001)) (FIG. 23C). M2 and M4 mAChR activation inhibits adenylatecyclase, leading to decreased intracellular cAMP levels (C. C. Felder, FASEB J, 9, 619 (1995); M. Lopez-Ilasaca et al., Science, 275, 394 (1997)). […] Acetylcholine is a known regulator of OPC proliferation and, as such, muscarinic receptor subtypes represent a reasonable class of therapeutic targets for the modulation of OPC proliferation and differentiation (F. De Angelis et al., Dev Neurobiol, (2011)).
# [2] = system: rat optic nerve derived OPCs; experiment: High content imaging assay of OPC differentiation (MBP immunostaining, OPERA); format: cell-based; details: OPCs in differentiation medium (2 ng/ml PDGF), 6 days
# Description: FIG. 1A-C. […] The calculated EC50 values were determined using appropriate Graphpad Prism 5.0 curve fitting software. […] OPCs were plated in 384 well plates at 1000 cells per well in OPC media containing basal PDGF-αα (2 ng/mL) and treated with serial dilutions of compounds. Following six days of compound treatment, cells were fixed and subjected to immunofluorescence analysis using anti-myelin basic protein (MBP) antibody. Image acquisition and quantification of MBP staining was performed using the OPERA imaging system.
# FIG. 11A-B. Screen to identify inducers of OPC differentiation. (A) OPCs were maintained as proliferating A2B5-positive cells under basal growth conditions (Neurobasal medium, B27 supplement without Vitamin A, non-essential amino acids, L-Glutamine, 30 ng/ml PDGF). OPCs were plated in basal differentiation media (Neurobasal medium, B27 supplement without Vitamin A, non-essential amino acids, L-Glutamine, 2 ng/ml PDGF), treated with DMSO (<0.1%) or thyroid hormone (1 uM), fixed after 6 days in culture, and stained using antibodies for CNP, O4, or MBP. […] (B) Screen strategy using A2B5 positive OPCs cultured under basal differentiation conditions and treated with compounds for 6 days to identify small molecules that induce the differentiation of OPCs to mature, MBP expressing oligodendrocytes.
# FIG. 12A-B. Primary hit confirmation. (A) Dose response assay used to confirm primary screening hits and determine potency (EC50). (EC50) is defined as the concentration that results in a half maximal increase in the percentage of total cells that express MBP as detected by immunostaining. […] Cells were fixed and immunostained using antibodies for MBP. Error bars represent standard deviations from 3 replicate experiments. […]
# FIG. 21. […] OPCs were plated in differentiation medium (2 ng/ml PDGF) and treated with various concentrations of compounds for 6 days. Cells were fixed and immunostained for MBP.
# A large-scale small molecule screen was conducted to identify small molecules that promote the differentiation of oligodendrocyte precursor cells (OPCs) to a mature myelinating fate. High content imaging was used to detect in-well differentiation of rat optic nerve derived OPCs. Rat optic nerve derived OPCs were expanded en masse in OPC media containing 30 ng/mL PDGFαα. To screen for small molecule inducers of OPC differentiation, OPCs (cultured for fewer than 15 passages) were plated in poly-D-lysine coated 384 well culture plates in OPC Media containing 2 ng/mL PDGFαα and immediately treated with compounds at a final concentration of 6 μM (0.6% DMSO). Compound treated cells were incubated at 37° C., 5% CO2 for 6 days. At the end of 6 days, cells were fixed in 4% paraformaldehyde and subjected to immunofluorescence analysis. Anti-Myelin Basic Protein monoclonal antibody (a.a. 129-138, clone 1 monoclonal antibody, Millipore) (1:1000 dilution) in blocking buffere solution (3% BSA, 0.3% Triton X-100 in PBS) was added to fixed and washed cells and incubated at 4° C. overnight.
Compound,effect of carbachol on compound induced OPC differentiation [1],effect of carbachol on compound induced OPC differentiation ([1]; listed as benzatropine),induction of OPC differentiation (MBP staining) [2]
CN1[C@@H]2CC[C@H]1C[C@@H](OC(c1ccccc1)c1ccccc1)C2 [benztropine],inhibited; also recorded: Potent inhibition; also recorded: antagonizes,dose dependent inhibition,promote OPC differentiation; also recorded: dose dependent activity
CN1CCN(CCCN2c3ccccc3Sc3ccc(C(F)(F)F)cc32)CC1 [trifluoperazine],did not inhibit; also recorded: no effect,–,promote OPC differentiation
